Test [1] relates to multi-drug resistant HIV-1 virus (HIV-1-MDR). As to the kind of experiment: microbe, parasite or virus in culture. The format is cell-based. The conditions noted are these: for Activity class for HIV-1-MDR test (pEC50 values): MT4-LTR-EGFP cells, three days incubation, GFP signal, average where more than one run. As to the method: (§1) The compounds were tested in a cellular assay using the MT4-LTR-EGFP cells for anti-viral activity. […] The cellular assay was performed according to the following procedure.
(§2) HIV- or mock-infected MT4-LTR-EGFP cells were incubated for three days in the presence of various concentrations of the inhibitor. Upon infection, the GFP reporter is activated by the viral tat protein. At the end of the incubation period, the GFP signal was measured. In the virus control samples (in the absence of any inhibitor) the maximal fluorescent signal was obtained. The inhibitory activity of the compound was monitored on the virus-infected cells and was expressed as EC50 and EC90. These values represent the amount of the compound required to protect 50% and 90%, respectively, of the cells from virus infection.

The subject of test [2] is wild type laboratory HIV strain (HIV-1 strain LAI). As to the kind of experiment: microbe, parasite or virus in culture. The format is cell-based. As to the method: as §1, §2
Setting [3] is: MT4-LTR-EGFP cells, three days incubation, GFP signal, average where more than one run.

Where two headings read alike, the source gives them in different places.

As to `COc1ccc(CN(C)CCc2ccc(C3=NN4C(C(=O)c5ccc(C#N)cc5)Oc5ccccc5C4C3)cc2)cc1` (stereo not drawn) [Compound 32], the “Activity class for HIV-1-MDR test (pEC50 values)” value (from here on “Activity class for HIV-1-MDR test”) in test [1] stood at 6.72. The “Activity class for HIV-1-LAI test (pEC50 values)” value (“Activity class for HIV-1-LAI test” below) in test [2] (setting [3]) is listed as 7.08.
For `CN(C)CCN(C)CCCCc1ccc(C2=NN3C(C(=O)c4ccc(C#N)cc4)Oc4ccccc4C3C2)cc1` (stereo not drawn) [Compound 22], in that order: 5.47 and 5.52.
For `CN(C)c1ccc(CNCc2ccc(C3=NN4C(C(=O)c5ccc(C#N)cc5)Oc5ccccc5C4C3)cc2)cc1` (stereo not drawn) [Compound 37] the same measures were 6.31 and 6.12.
For `COc1ccc(CN(C)Cc2ccc(C3=NN4C(C(=O)c5ccc(C(C)(C)C)cc5)Oc5ccccc5C4C3)cc2)cc1` (stereo not drawn) [Compound 9], the “Activity class for HIV-1-MDR test” value in test [1] was 7. In addition, the “Activity class for HIV-1-LAI test” value in test [2] (setting [3]) was 7.28.
Regarding `COc1ccc(CN(C)CCCCc2ccc(C3=NN4C(C(=O)c5ccc(C#N)cc5)Oc5ccccc5C4C3)cc2)cc1` (stereo not drawn) [Compound 23], in test [1], the “Activity class for HIV-1-MDR test” value worked out at 5.32. For the same compound, the “Activity class for HIV-1-LAI test” value in test [2] (setting [3]) is 5.38.
For `CCN(CC)CCCCc1ccc(C2=NN3C(C(=O)c4ccc(C#N)cc4)Oc4ccccc4C3C2)cc1` (stereo not drawn) [Compound 19] the same measures were 5.43 and 5.39.
For the compound `N#Cc1ccc(C(=O)C2Oc3ccccc3C3CC(c4ccc(CCCCNCc5ccccn5)cc4)=NN23)cc1` (stereo not drawn) [Compound 26], the “Activity class for HIV-1-MDR test” value in test [1] is 4.86. Moreover, in test [2] (setting [3]), the “Activity class for HIV-1-LAI test” value was found to be 5.28.
On to `COc1ccc(CN(C)Cc2ccc(C3=NN4C(C(=O)c5ccc(S(C)(=O)=O)cc5)Oc5ccccc5C4C3)cc2)cc1` (stereo not drawn) [Compound 29], for which the “Activity class for HIV-1-MDR test” value in test [1] is 8.56. For the same compound, the “Activity class for HIV-1-LAI test” value in test [2] (setting [3]) is on record as 8.47.
For `CN(CCCc1ccc(C2=NN3C(C(=O)c4ccc(C#N)cc4)Oc4ccccc4C3C2)cc1)C1CCCC1` (stereo not drawn) [Compound 35] the same measures were 5.81 and 5.76.
Turning to `COc1ccc(NCCCc2ccc(C3=NN4C(C(=O)c5ccc(C#N)cc5)Oc5ccccc5C4C3)cc2)cc1` (stereo not drawn) [Compound 14], in test [1], the “Activity class for HIV-1-MDR test” value is on record as 6.34. Moreover, in test [2], the “Activity class for HIV-1-LAI test” value was found to be 6.41.
With `COc1ccc(NCCCCc2ccc(C3=NN4C(C(=O)c5ccc(C#N)cc5)Oc5ccccc5C4C3)cc2)cc1` (stereo not drawn) [Compound 20], in test [1], the “Activity class for HIV-1-MDR test” value is 6.51. For the same compound, the “Activity class for HIV-1-LAI test” value in test [2] stood at 7.42.
As to `N#Cc1ccc(C(=O)C2Oc3ccccc3C3CC(c4ccc(CNCc5ccccn5)cc4)=NN23)cc1` (stereo not drawn) [Compound 6], the “Activity class for HIV-1-MDR test” value in test [1] stood at 7.28. For the same compound, the “Activity class for HIV-1-LAI test” value in test [2] (setting [3]) turned out to be 7.13.
Take `N#Cc1ccc(C(=O)C2Oc3ccccc3C3CC(c4ccc(CNCc5ccccc5)cc4)=NN23)cc1` (stereo not drawn) [Compound 2]: in test [1], the “Activity class for HIV-1-MDR test” value was 7.83. Also, the “Activity class for HIV-1-LAI test” value in test [2] (setting [3]) was 7.58.
For `CCN(CC)CCc1ccc(C2=NN3C(C(=O)c4ccc(C#N)cc4)Oc4ccccc4C3C2)cc1` (stereo not drawn) [Compound 12] the same measures were 7.35 and 7.16.
As to `CCN(CC)Cc1ccc(C2=NN3C(C(=O)c4ccc(C#N)cc4)Oc4ccccc4C3C2)cc1` (stereo not drawn) [Compound 1, 4-[4-(4-cyano-benzoyl)-1,9b-dihydro-5-oxa-3,3a-diaza-cyclopenta[a]naphthalen-2-yl]-N,N-diethyl-benzylamine], the EC50 is 8.71 nM in test [1] (Human immunodeficiency virus 1, 72 h, read-out: Activity class for HIV-1-MDR test (pEC50 values) (converted)) and 19.1 nM in test [2] (Human immunodeficiency virus 1, 72 h, MT4-LTR-EGFP cells, three days incubation, GFP signal, average where more than one run, read-out: Activity class for HIV-1-LAI test (pEC50 values) (converted)).
Turning to `COc1ccc(CN(C)CCCc2ccc(C3=NN4C(C(=O)c5ccc(C#N)cc5)Oc5ccccc5C4C3)cc2)cc1` (stereo not drawn) [Compound 25], the “Activity class for HIV-1-MDR test” value in test [1] came out at 5.04. Also, the “Activity class for HIV-1-LAI test” value in test [2] (setting [3]) is 6.53.
For `CN(Cc1ccc(C2=NN3C(C(=O)c4ccc(C#N)cc4)Oc4ccccc4C3C2)cc1)C1CCCC1` (stereo not drawn) [Compound 13], in that order: 8.62 and 8.32.
As to `CN(C)CCCc1ccc(C2=NN3C(C(=O)c4ccc(C#N)cc4)Oc4ccccc4C3C2)cc1` (stereo not drawn) [Compound 16], the “Activity class for HIV-1-MDR test” value in test [1] is reported as 5.51. In addition, in test [2], the “Activity class for HIV-1-LAI test” value is recorded as 5.6.
As to `N#Cc1ccc(C(=O)C2Oc3ccccc3C3CC(c4ccc(CCNCc5ccccc5)cc4)=NN23)cc1` (stereo not drawn) [Compound 33], the “Activity class for HIV-1-MDR test” value in test [1] came out at 6.07. In addition, the “Activity class for HIV-1-LAI test” value in test [2] (setting [3]) was found to be 6.35.
Consider `COc1ccc(NCc2ccc(C3=NN4C(C(=O)c5ccc(C#N)cc5)Oc5ccccc5C4C3)cc2)cc1` (stereo not drawn) [Compound 5], for which the “Activity class for HIV-1-MDR test” value in test [1] was determined as 6.5. Besides, in test [2], the “Activity class for HIV-1-LAI test” value is on record as 6.22.
Turning to `CCN(CC)Cc1ccc(C2=NN3C(C(=O)c4ccc(C(C)(C)C)cc4)Oc4ccccc4C3C2)cc1` (stereo not drawn) [Compound 11], the “Activity class for HIV-1-MDR test” value in test [1] is reported as 7.59. Besides, the “Activity class for HIV-1-LAI test” value in test [2] (setting [3]) is given as 7.64.
For `N#Cc1ccc(C(=O)C2Oc3ccccc3C3CC(c4ccc(CCCNCc5ccccc5)cc4)=NN23)cc1` (stereo not drawn) [Compound 17], in that order: 5.37 and 5.56.
For `CCN(CC)Cc1ccc(C2=NN3C(C(=O)c4ccc(S(C)(=O)=O)cc4)Oc4ccccc4C3C2)cc1` (stereo not drawn) [Compound 30], in that order: 7.95 and 7.9.
For `CN(C)CCN(C)CCCc1ccc(C2=NN3C(C(=O)c4ccc(C#N)cc4)Oc4ccccc4C3C2)cc1` (stereo not drawn) [Compound 15], in that order: 5.52 and 5.42.
Turning to `CN(C)CCN(C)Cc1ccc(C2=NN3C(C(=O)c4ccc(C#N)cc4)Oc4ccccc4C3C2)cc1` (stereo not drawn) [Compound 4], in test [1], the “Activity class for HIV-1-MDR test” value was 6.25. In addition, the “Activity class for HIV-1-LAI test” value in test [2] (setting [3]) stood at 6.41.
For `N#Cc1ccc(C(=O)C2Oc3ccccc3C3CC(c4ccc(CNCCN5CCCC5)cc4)=NN23)cc1` (stereo not drawn) [Compound 7], the “Activity class for HIV-1-MDR test” value in test [1] worked out at 6.49. Also, the “Activity class for HIV-1-LAI test” value in test [2] (setting [3]) was determined as 6.55.
For `N#Cc1ccc(C(=O)C2Oc3ccccc3C3CC(c4ccc(CCCNCc5ccccn5)cc4)=NN23)cc1` (stereo not drawn) [Compound 31] the same measures were 5.38 and 4.85.
For the compound `N#Cc1ccc(C(=O)C2Oc3ccccc3C3CC(c4ccc(CCCCNCc5ccccc5)cc4)=NN23)cc1` (stereo not drawn) [Compound 18], the “Activity class for HIV-1-MDR test” value in test [1] was 5.47. Moreover, the “Activity class for HIV-1-LAI test” value in test [2] turned out to be 5.47.
For `CN(C)CCN(C)CCc1ccc(C2=NN3C(C(=O)c4ccc(C#N)cc4)Oc4ccccc4C3C2)cc1` (stereo not drawn) [Compound 34], the “Activity class for HIV-1-MDR test” value in test [1] came out at 6.12. The “Activity class for HIV-1-LAI test” value in test [2] (setting [3]) is 6.25.
For `N#Cc1ccc(C(=O)C2Oc3ccccc3C3CC(c4ccc(CCCCNCc5ccncc5)cc4)=NN23)cc1` (stereo not drawn) [Compound 21], in that order: 5.2 and 5.23.
For `COc1ccc(CN(C)Cc2ccc(C3=NN4C(C(=O)c5ccc(C#N)cc5)Oc5ccccc5C4C3)cc2)cc1` (stereo not drawn) [Compound 8], in that order: 7.85 and 7.81.
Regarding `CN(CCCCc1ccc(C2=NN3C(C(=O)c4ccc(C#N)cc4)Oc4ccccc4C3C2)cc1)C1CCCC1` (stereo not drawn) [Compound 27], the “Activity class for HIV-1-MDR test” value in test [1] was found to be 5.15. The “Activity class for HIV-1-LAI test” value in test [2] (setting [3]) is recorded as 5.36.
For `CN(Cc1ccc(C2=NN3C(C(=O)c4ccc(C#N)cc4)Oc4ccccc4C3C2)cc1)Cc1ccc(N(C)C)cc1` (stereo not drawn) [Compound 36], in that order: 7.18 and 7.45.

Source of the values: patent publication US7465727B2, “(1,10B-dihydro-2-(aminoalkyl-phenyl)-5H-pyrazolo[1,5-c][1,3]Benzoxazin-5-yl)phenyl methanone derivatives as HIV viral replication inhibitors” (priority 2005, dated 2008).
